From patent US12144788B2, “Visual cycle modulators” (CASE WESTERN RESERVE UNIVERSITY, priority 2017, dated 2024) come the findings set out here.

For data set [1], the system named is visual chromophore regeneration in C57BL6J mouse eyes. Description: visual chromophore recovery assay (ocular 11-cis-retinal by HPLC after bleach). Format: in vivo. How it is done:
FIG. 4 illustrates inhibition of visual chromophore regeneration in C57BL6J mouse eyes by MB compounds. The MB drugs were administrated to mice by oral gavage 24 h prior to light exposure for 10 min. Then all mice recovered under darkness for 6 h.
Abca4^−/−Rdh8^−/− mice on a C57BL/6J background were generated as previously described. Male and female WT mice with C57BL/6J backgrounds were obtained from The Jackson Laboratory. Abca4^−/−Rdh8^−/− mice used in this study were homozygous for the Leu450 allele of Rpe65 as determined by a genotyping protocol published previously and free of Crb1/rd8 and rd/rd mutations Animals were housed either in the animal facility at the Case Western Reserve University School of Medicine, where they received a standard chow diet (LabDiet 5053) and were maintained under a 12-h light (˜300 lux) and 12-h dark cycle or at the Cole Eye Institute animal facility where they were. Mice were dark adapted overnight prior to all experiments. A cohort of Rdh8^−/−Abca4^−/− or C57BL/6J mice was used when they reached the age of 1 to 2 months, and both sexes were used evenly. All tested primary amines were suspended in 100 μl soybean oil with less than 10% (v/v) DMSO and were administered by oral gavage with a 22-gauge feeding needle. Experimental manipulations in the dark were done under dim red light transmitted through a Kodak No. 1 Safelight Filter (transmittance >560 nm).
After bright light exposure resulting in photoactivation of 95% of rhodopsin, mice were kept in the dark for 6 h. Then, the animals were euthanized and their eyes were collected and homogenized in 10 mM sodium phosphate buffer, pH 7.4, containing 50% methanol (v/v) and 40 mM hydroxylamine. The resulting mixture was extracted with 4 ml of hexanes.
Next, we tested the effects of the MB compound series on retinoid cycle function in the living mouse. […] After the light treatment, mice were allowed to dark adapt for 6 h before their ocular retinoid content was determined by HPLC. […] To examine the possibility that the lack of MB-008 efficacy at 24 h was due to insufficient concentrations resulting from a shorter elimination half-life or poorer bioavailability, we repeated the experiment with the mice subjected to light exposure 4 h after MB-008 administration. A 100 μg dose of MB-008 suppressed visual chromophore regeneration by ˜80%, supporting the idea that the retinal concentration of MB-008 could be sub-effective at the longer post-treatment light challenge.

Data set [2] can be described thus: quantification of MB-005 in mouse eyes by LC-ESI-MS/MS. In kind it is in vivo. To be noted: 1 mg dose oral gavage. The method, then:
MB-005 (1 mg/mouse) was administrated by oral gavage to C57BL/6J mice, which were then kept in the dark for 4-24 h. Then, mice were euthanized, and their eyes were homogenized in 1 ml of 10 mM sodium phosphate buffer, pH 7.4, containing 50% methanol (v/v). The resulting mixture was extracted with 4 ml EtOAc. […] This solution (100 μl) was analyzed by liquid chromatography—electrospray ionization—MS/MS (LC-ESI-MS/MS) (4.6 mm×150 mm; Agilent ZORBAX Eclipse XDB-C18) with a gradient of acetonitrile in water (0%-100% in 30 min) as the eluent at a flow rate of 0.5 ml/min.
To confirm the ocular distribution of this compound series, we directly measured the quantity of MB-005 in the eye by mass spectrometry after a 1 mg dose. […] This minimal change in ocular MB-005 concentration contrasts with the ˜3-fold greater inhibition of visual cycle function observed at 4 h versus 24 h for this compound.

“Also recorded” adds a separate entry of the source.

With `CC(C)c1cc(OCC2CCCCC2)cc(C(O)CCN)c1` (stereo not shown) [MB-005, 3-Amino-1-(3-(cyclohexylmethoxy)-5-isopropylphenyl)propan-1-ol], the “effect on 11-cis-retinal recovery / visual cycle function” value in data set [1] (500 μg (0.5 mg/mouse) oral gavage 24 h before light exposure, 6 h dark) is on record as “minimal effects; also recorded: no measurable effect”. The visual cycle function entry in data set [1] (2 mg/mouse oral gavage) is reported as “severely impaired”. In addition, the “fold greater inhibition of visual cycle function at 4 h versus 24 h” value in data set [1] (4 h versus 24 h between dose and light) is on record as about 3 fold. Further, the “effect of shortening the time between drug administration and the light challenge” value in data set [1] (shorter interval versus 24 h) is given as “enhanced the inhibitory effects”. Moreover, the “inhibition of 11-cis-retinal recovery (suppression of visual chromophore regeneration)” value in data set [1] (two-fold higher dose than 500 μg (1 mg per mouse), oral gavage 24 h before light exposure) was ~50% and approximately 60%. Moreover, the entries for the “ocular level of MB-005” value in data set [2] (6 h after treatment) and in data set [2] (24 h post-treatment time point versus 6 h) were about 140 ng/eye and “declined only slightly”, respectively.
